Data as given in patent publication US20250049753A1, “METHODS AND COMPOSITIONS FOR DELIVERING MYCOPHENOLIC ACID ACTIVE AGENTS TO NON-HUMAN MAMMALS” (Okava Pharmaceuticals, Inc., priority 2017, published 2025).
Where “and” joins values, the source holds several entries; their conditions need not be identical. Equal values may be shown once.

Experiment: Study 1: single-dose cross-over PK, oral vs intracolonic Na.MPA
Assay type: in vivo, male beagle dogs
Conditions: for dose-normalized AUClast MPA: fasted, average
Method: Two single dose cross-over studies were conducted using a canine model (male beagle dogs) to evaluate the potential of an enteric coated-extended release sodium mycophenolate formulation (“EC-ER-Na.MP”). In a first cross-over study, the pharmacokinetics of MPA and its metabolites (MPAG and AcMPAG) following oral dosing of 180 mg of EC-Na.MPA was compared with intracolonic (IC) administration of Na.MPA. In a second cross-over study, 270 mg of an EC-ER-Na.MPA formulation was administered in the both fed and fasted states and pharmacokinetics were compared with oral administration of 10 mg/kg MMF in the fasted state. Both studies were conducted by Absorption Systems (San Diego, CA).
Study 1: For three days prior to IC dosing, dogs (n=5) were offered a soft diet consisting of canned wet food (Pedigree® Choice Cuts). Otherwise, the dogs were offered their standard diet (LabDiet 5006 laboratory canine diet). Prior to each dosing event, the dogs were fasted for 12 hours prior to dosing until 4 hours post-dose, when food was returned. Animals had free access to water throughout the study. Prior to IC dosing, each dog was given a non-stimulant enema approximately 1 hour prior to dosing to remove feces from the colon. Prior to PO dosing, each dog (n=5) was pre-treated with an intramuscular dose of pentagastrin (6 μg/kg) approximately 30 minutes prior to dosing. Capsules were administered by placement in the back of the throat followed by a 10 mL flush with water.
Each dog received a total dose of 180 mg of MPA for each dose. For IC dosing, MPA was delivered as a solution via an endoscope, and for PO dosing each dog received a single Myfortic® 180 mg enteric coated capsule. Following administration, blood samples were collected up to 24 hours post-dose. Plasma concentrations of MPA, MPAG, and AcMPAG were determined with a qualified LC-MS/MS method, and pharmacokinetic parameters were determined with WinNonlin v.6.4 software.

COc1c(C)c2c(c(O)c1C/C=C(\C)CCC(=O)O)C(=O)OC2 [MPA, Mycophenolic acid]
dose-normalized AUClast MPA (IC 180 mg/dog): 1817 ± 925 kg·ng·h/mL/mg and 1817 kg·ng·h/mL/mg
dose-normalized AUClast MPA (PO 180 mg/dog): 2234 ± 799 kg·ng·h/mL/mg and 2234 kg·ng·h/mL/mg
systemic exposure to MPA following IC and PO dosing (based on average values): similar
rate of MPA absorption, IC in comparison to PO dose (dog, in vivo, po): more rapidly absorbed following IC dosing
